Data as given in US12697331B2, “Methods of use of T-type calcium channel modulators” (PRAXIS PRECISION MEDICINES, INC., priority 2020, dated 2026).
Structures can show the parent of a compound that is named as a salt.

Key:
[1] = Food effect: high-fat, high-calorie meal, single 20 mg dose; format: in vivo, human; settings: single 20 mg oral dose
Procedure: The effect of a high-fat, high-calorie meal on the pharmacokinetics of a compound of formula (II) was evaluated in an open-label, sequential fashion following a single 20 mg dose of formulation 5 in participants who had previously received a 20 mg dose of formulation 5 under fasted conditions.

[2] = target: T1, hCav3.2 (Homo sapiens, UniProt O95180); assay: PatchXpress patch clamp, voltage dependent block (half-inactivated state, V0.5); format: cell-based; settings: for Inhibition of hCav3.2 peak current, voltage dependent block (percent inhibition), mean: half-inactivated state (V0.5)
T1 construct: expressed in transfected cells; host or cells: HEK-293 (cultured under G418 selection)
T1 sequence (O95180 whole entry): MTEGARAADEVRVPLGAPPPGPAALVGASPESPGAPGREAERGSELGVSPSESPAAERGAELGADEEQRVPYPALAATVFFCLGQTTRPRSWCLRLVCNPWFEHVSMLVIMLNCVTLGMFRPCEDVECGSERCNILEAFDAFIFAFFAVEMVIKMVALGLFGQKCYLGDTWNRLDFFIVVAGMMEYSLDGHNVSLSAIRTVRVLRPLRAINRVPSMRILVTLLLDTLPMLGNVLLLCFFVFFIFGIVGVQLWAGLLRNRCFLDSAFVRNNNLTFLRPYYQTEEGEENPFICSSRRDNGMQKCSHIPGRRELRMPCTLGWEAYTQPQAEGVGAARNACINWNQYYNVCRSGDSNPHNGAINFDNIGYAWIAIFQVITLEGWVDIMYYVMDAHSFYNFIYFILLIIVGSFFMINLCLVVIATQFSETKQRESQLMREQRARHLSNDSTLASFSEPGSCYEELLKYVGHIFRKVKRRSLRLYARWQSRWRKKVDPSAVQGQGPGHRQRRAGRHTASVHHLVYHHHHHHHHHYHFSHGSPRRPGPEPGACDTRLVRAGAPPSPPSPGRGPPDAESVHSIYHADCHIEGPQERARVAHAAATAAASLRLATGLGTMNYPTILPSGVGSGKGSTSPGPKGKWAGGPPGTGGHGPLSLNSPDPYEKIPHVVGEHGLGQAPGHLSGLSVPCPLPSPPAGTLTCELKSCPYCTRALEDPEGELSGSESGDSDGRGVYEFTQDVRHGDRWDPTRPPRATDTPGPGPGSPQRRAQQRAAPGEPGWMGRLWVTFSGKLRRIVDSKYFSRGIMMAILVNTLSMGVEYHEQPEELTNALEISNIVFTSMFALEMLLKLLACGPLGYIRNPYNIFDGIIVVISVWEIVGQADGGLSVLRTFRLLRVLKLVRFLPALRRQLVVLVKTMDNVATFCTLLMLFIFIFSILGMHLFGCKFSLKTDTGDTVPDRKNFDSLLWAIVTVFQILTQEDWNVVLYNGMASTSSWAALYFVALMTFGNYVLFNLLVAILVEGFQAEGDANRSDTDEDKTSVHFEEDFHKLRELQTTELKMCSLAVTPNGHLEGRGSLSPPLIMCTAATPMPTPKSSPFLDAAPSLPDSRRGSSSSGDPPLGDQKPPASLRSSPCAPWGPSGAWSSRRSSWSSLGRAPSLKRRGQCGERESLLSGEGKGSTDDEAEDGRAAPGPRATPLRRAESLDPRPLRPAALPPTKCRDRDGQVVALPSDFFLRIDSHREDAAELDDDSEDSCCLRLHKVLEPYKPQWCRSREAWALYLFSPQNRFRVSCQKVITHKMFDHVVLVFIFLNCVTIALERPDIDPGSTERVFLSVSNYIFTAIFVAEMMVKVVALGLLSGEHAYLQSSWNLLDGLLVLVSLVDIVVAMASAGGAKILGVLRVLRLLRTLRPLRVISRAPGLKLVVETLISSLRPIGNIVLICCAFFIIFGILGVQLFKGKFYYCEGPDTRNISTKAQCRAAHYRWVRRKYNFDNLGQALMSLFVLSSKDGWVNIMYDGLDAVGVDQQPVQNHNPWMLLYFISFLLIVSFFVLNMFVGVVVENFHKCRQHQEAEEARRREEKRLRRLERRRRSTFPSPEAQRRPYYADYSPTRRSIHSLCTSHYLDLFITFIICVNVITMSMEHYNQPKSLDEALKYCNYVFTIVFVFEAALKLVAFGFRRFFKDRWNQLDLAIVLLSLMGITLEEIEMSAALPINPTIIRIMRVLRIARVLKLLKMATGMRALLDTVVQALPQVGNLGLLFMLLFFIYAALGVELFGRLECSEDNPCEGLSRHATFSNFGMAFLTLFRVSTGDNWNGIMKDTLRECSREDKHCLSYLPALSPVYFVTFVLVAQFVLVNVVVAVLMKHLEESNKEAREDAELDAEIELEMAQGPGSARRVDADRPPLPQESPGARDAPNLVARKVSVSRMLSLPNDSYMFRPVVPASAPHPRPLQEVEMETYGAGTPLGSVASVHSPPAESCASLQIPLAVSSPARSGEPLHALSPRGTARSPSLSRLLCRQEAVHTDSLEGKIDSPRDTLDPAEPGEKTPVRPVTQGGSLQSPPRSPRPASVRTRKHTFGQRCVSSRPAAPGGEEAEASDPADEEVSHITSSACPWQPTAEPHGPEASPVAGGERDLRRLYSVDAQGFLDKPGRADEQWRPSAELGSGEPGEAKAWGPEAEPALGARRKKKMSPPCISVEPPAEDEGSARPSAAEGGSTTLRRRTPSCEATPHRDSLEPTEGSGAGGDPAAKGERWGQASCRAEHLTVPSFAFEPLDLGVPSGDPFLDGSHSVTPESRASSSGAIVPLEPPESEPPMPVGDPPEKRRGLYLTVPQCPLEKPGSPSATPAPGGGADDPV
Procedure: (§1) The voltage dependence of calcium channel isoforms was determined by comparing the activity of resting (Tonic Block) and half-inactivated (Voltage Dependent Block) voltages across various concentrations of Formula (II). First, HEK-293 cells containing hCav3.1, hCav3.2, or hCav3.3 calcium channel isoforms were prepared by seeding at 2×10^6 cells per flask in culture for 2 days; the cells were then harvested at about 6×10^6 cells. Harvested cells were washed once in DPBS for approximately 30 minutes, and 1 mL of 1× (0.05%) Trypsin-EDTA was added, swirled, and allowed to sit on the cells for approximately 4 minutes. 10 mL of warmed DMEM high glucose media supplemented with 10% fetal bovine serum, 2 mM sodium pyruvate, 10 mM HEPES, and 400 μg/mL G418 was added, and the cells were triturated until a single cell suspension was […]. Cells were placed in a 250 mL centrifuge tube with 30 mL warmed media and gently rocked at 28° C. for approximately 1 hour. Cell aliquots of 5 mLs (1×10^6 cells) were then centrifuged at 100× for 2 minutes, and supernatant was removed. Next, 100 μl of external recording solution was added to the remaining cell pellet and triturated 20 times to achieve a single cell suspension.
(§2) Immediately prior to assay, Formula (II) was diluted with DMSO to 300× the designated final concentration. All studies were performed using the Molecular Devices PatchXpress automated patch clamp platform at room temperature.
(§3) Pharmacology was measured during Epoch 1. Percent inhibition was calculated as: 100*((([Step 2+Step 5]/2)−Step 3)/(Step 2+Step 5/2)), wherein Step 2 is the peak current measured at baseline, Step 5 is the current measured during the wash period, and Step 3 is the peak current measured during application of the compound. The average of the final 3 consecutive currents in each experimental procedure was used for all calculations. The concentration response curve was fit with a Hill equation to derive IC50, slope, minimum response, and maximum response fitting parameters.
(§4) To calculate the hCav3.1, hCav3.2, and hCav3.3 peak current from a half-inactivated state (voltage dependent block), currents were first evoked by depolarizing pulses to −25 mV (10 ms) from a non-inactivating holding potential (−120 mV) at a frequency of 0.1 Hz. After current amplitude became stable, the mid-point average of steady state inactivation was determined for each cell using a series of 9,900 ms conditioning steps to increasingly depolarize voltages (ranging from Vhold (−120 mV) to −40 mV) preceding a test pulse to −25 mV (10 ms) to establish the magnitude of inactivation. The holding command potential was then set to the voltage that produced approximately 50% inactivation (V0.5) using PatchXpress scripts. From this V0.5 potential, a voltage step to −25 mV (10 ms) was used to evoque peak current. The voltage was stepped to −120 mv (50 ms) to evoque tail currents and monitor cell integrity.
(§5) The effect of the compound on peak current amplitude was monitored using the voltage protocol described above and washed out after reaching steady state as determined by PatchXpress stability scripts. Washout was performed at the original holding potential of −120 mV to facilitate reversal of state-dependent interactions. Washout current for the calculation of inhibition was determined by resetting the holding potential to the previously determined half-inactivation potential (V0.5) and measuring peak current from this holding potential. Pharmacology was measured during Epoch 1, and percent inhibition was calculated as discussed above for tonic block.

[3] = target: T2, hCav3.1 (Homo sapiens, UniProt O43497); assay: as above; format: cell-based; settings: for Inhibition of hCav3.1 peak current, voltage dependent block (percent inhibition), mean: half-inactivated state (V0.5)
T2 construct: expressed in transfected cells; host or cells: HEK-293 (cultured under G418 selection)
Procedure: as §1, §2, §3, §4, §5

[4] = target: T3, hCav3.3 (Homo sapiens, UniProt Q9P0X4); assay: as above; format: cell-based; settings: for Inhibition of hCav 3.3 peak current, voltage dependent block (percent inhibition), mean: half-inactivated state (V0.5)
T3 construct: expressed in transfected cells; host or cells: HEK-293 (cultured under G418 selection)
T3 sequence (Q9P0X4 whole entry): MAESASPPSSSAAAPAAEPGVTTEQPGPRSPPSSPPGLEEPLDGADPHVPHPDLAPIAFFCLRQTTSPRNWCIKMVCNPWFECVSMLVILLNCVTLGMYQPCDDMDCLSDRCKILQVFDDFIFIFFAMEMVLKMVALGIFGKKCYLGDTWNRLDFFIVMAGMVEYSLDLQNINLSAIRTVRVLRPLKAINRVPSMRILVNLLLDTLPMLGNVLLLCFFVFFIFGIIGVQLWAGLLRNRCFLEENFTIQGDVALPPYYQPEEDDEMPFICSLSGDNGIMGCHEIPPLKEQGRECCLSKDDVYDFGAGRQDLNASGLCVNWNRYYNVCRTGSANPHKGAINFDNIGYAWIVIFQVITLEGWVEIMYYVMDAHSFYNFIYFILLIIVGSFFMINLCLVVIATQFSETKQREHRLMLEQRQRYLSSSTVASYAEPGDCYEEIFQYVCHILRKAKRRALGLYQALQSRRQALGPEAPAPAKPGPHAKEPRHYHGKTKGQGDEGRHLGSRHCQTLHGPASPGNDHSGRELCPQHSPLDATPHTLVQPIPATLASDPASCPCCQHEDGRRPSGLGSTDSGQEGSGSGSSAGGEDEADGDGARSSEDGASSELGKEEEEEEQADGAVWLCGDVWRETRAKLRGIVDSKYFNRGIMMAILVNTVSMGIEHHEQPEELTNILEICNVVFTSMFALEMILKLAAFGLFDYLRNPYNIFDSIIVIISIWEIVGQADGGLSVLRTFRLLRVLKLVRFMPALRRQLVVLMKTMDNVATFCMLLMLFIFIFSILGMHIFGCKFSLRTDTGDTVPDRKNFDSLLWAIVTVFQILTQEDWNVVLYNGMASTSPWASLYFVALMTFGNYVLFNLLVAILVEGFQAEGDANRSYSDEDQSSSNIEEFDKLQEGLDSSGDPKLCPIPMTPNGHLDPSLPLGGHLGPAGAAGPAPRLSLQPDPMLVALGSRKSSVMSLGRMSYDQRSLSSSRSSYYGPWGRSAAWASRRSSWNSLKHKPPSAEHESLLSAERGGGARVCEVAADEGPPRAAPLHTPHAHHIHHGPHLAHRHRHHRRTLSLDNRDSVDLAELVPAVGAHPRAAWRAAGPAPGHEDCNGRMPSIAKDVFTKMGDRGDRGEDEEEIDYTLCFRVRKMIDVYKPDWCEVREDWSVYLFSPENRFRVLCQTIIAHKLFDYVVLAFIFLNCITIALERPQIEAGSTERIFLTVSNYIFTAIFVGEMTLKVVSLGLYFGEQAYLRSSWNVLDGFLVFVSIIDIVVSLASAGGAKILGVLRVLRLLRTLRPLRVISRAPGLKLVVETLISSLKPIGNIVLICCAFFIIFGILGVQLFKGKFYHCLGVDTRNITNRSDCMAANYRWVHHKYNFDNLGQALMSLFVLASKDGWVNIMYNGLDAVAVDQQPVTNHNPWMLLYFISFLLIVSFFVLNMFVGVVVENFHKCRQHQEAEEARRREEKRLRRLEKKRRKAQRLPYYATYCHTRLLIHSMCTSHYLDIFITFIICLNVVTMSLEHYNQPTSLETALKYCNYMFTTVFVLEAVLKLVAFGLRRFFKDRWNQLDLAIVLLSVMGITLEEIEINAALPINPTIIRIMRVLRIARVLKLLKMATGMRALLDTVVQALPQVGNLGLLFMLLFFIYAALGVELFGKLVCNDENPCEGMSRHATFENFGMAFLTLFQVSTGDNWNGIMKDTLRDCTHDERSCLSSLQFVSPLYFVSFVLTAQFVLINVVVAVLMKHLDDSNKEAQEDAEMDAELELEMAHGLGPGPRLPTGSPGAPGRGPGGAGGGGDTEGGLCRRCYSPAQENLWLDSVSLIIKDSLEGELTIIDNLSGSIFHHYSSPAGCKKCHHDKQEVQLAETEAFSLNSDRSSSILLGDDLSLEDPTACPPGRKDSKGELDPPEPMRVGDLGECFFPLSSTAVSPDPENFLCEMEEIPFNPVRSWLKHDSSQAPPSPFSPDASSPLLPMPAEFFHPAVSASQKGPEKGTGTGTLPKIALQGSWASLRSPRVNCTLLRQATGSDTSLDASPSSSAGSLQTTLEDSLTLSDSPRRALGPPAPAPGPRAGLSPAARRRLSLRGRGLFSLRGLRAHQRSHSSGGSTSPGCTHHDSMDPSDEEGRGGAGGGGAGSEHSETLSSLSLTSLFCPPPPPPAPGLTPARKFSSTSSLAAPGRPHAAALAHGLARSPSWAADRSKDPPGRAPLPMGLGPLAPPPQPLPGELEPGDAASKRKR
Procedure: as §1, §2, §3, §4, §5

[5] = tested on: NREM sigma, EO and EC gamma absolute power; assay: Population PKPD modelling of EEG power versus model-predicted plasma concentration (NONMEM); format: in vivo, human
Procedure: The pharmacokinetic/pharmacodynamic (PKPD) effects of administration a compound of formula (II) on EEG were also evaluated. The recording of the NREM sigma absolute power was reported as a single summary value of a single night of sleep following each dose on pre-specified days (baseline and Days 4, 8 and 12 for Example 11, Part A and Days 10, 17, 24, and 31 for Part B, as set forth in Tables 22 and 23, above. Each NREM sigma absolute power value was paired with a model predicted average plasma concentration (Cave) that corresponded to the 24-hour EEG recording period on the respective study day. For example, if the period of EEG recording for an individual was from 6 am on Day 4 to 6 am on Day 5, then the corresponding Cave was calculated as the average of the individual's model-predicted concentrations (sampled every 30 minutes) from that same time period. The resulting PKPD data were analyzed in a mixed-effects modelling framework using NONlinear Mixed Effects Modeling (NONMEM) software. The change from baseline NREM sigma absolute power was specified as the outcome and the primary explanatory variable was the Cave of a compound of formula (II).
(§6) The eyes open (EO) and eyes closed (EC) gamma absolute power for each individual was also estimated at specific time points across the study days.
The population PK model was used to generate Cave for NREM sigma absolute power and concentrations for EO and EC gamma absolute power. For NREM sigma absolute power, the Cave was computed for the final day of each dose level over the EEG collection interval. For EO and EC gamma absolute power, concentrations at 4 hours post-dose and 23.75 hours post-dose were generated on the final day of each dose level. The final population PKPD models for NREM sigma absolute power and EO and EC gamma absolute power were then used to generate corresponding EEG responses.

[6] = tested on: gamma band EEG power; assay: qEEG: gamma band EEG power (eyes open / eyes closed); format: in vivo, human; settings: Part B, beginning at 60 mg and continuing through to 120 mg
Source text: It appears a maximal effect in gamma reduction was not achieved.
as §6

## CC(C)(C)NC(=O)CN1CCC(CNC(=O)c2cc(F)cc(Cl)c2)CC1 [compound of formula (II), N-((1-(2-(tert-butylamino)-2-oxoethyl)piperidin-4-yl)methyl)-3-chloro-5-fluorobenzamide hydrochloride]
[1]
  AUClast Ratio (fed/fasted): 1.14
  AUC∞ Ratio (fed/fasted): 1.15
  Cmax Ratio (fed/fasted): 1.49
[2]; 0.03 μm
  Inhibition of hCav3.2 peak current, voltage dependent block (percent inhibition), mean: 16.6 (11)
[2]; 0.09 μm
  Inhibition of hCav3.2 peak current, voltage dependent block (percent inhibition), mean: 31.2 (7)
[2]; 0.27 μm
  Inhibition of hCav3.2 peak current, voltage dependent block (percent inhibition), mean: 48.4 (9)
[2]; 0.91 μm
  Inhibition of hCav3.2 peak current, voltage dependent block (percent inhibition), mean: 78.8 (12)
[2]; 2.74 μm
  Inhibition of hCav3.2 peak current, voltage dependent block (percent inhibition), mean: 91.6 (13)
[2]; hCav3.2
  tonic block/voltage dependent block (TB/VDB) ratio: 2.0
[3]; 0.03 μm
  Inhibition of hCav3.1 peak current, voltage dependent block (percent inhibition), mean: 13.9 (12)
[3]; 0.09 μm
  Inhibition of hCav3.1 peak current, voltage dependent block (percent inhibition), mean: 29.7 (14)
[3]; 0.27 μm
  Inhibition of hCav3.1 peak current, voltage dependent block (percent inhibition), mean: 55.2 15)
[3]; 0.91 μm
  Inhibition of hCav3.1 peak current, voltage dependent block (percent inhibition), mean: 73.8 (9)
[3]; 2.74 μm
  Inhibition of hCav3.1 peak current, voltage dependent block (percent inhibition), mean: 84.6 (9)
[3]; 9.13 μm
  Inhibition of hCav3.1 peak current, voltage dependent block (percent inhibition), mean: 86.0 (7)
[3]; hCav3.1
  tonic block/voltage dependent block (TB/VDB) ratio: 3.8
[4]; 0.03 μm
  Inhibition of hCav 3.3 peak current, voltage dependent block (percent inhibition), mean: 12.9 (8)
[4]; 0.09 μm
  Inhibition of hCav 3.3 peak current, voltage dependent block (percent inhibition), mean: 26.9 (17)
[4]; 0.27 μm
  Inhibition of hCav 3.3 peak current, voltage dependent block (percent inhibition), mean: 58.7 (19)
[4]; 0.91 μm
  Inhibition of hCav 3.3 peak current, voltage dependent block (percent inhibition), mean: 76.9 (20)
[4]; 2.74 μm
  Inhibition of hCav 3.3 peak current, voltage dependent block (percent inhibition), mean: 89.4 (20)
[4]; 9.13 μm
  Inhibition of hCav 3.3 peak current, voltage dependent block (percent inhibition), mean: 92.9 (4)
[4]; hCav3.3
  tonic block/voltage dependent block (TB/VDB) ratio: 4.0
[5]; model predicted average plasma concentration, titrated
  Cave at which maximum reduction in NREM sigma absolute power appeared to occur: greater than 180 ng/mL
[5]; titrated up to 120 mg
  C(t) at which maximum reduction in EC gamma absolute power appeared to occur: > 300 ng/mL
  C(t) at which maximum reduction in EO gamma absolute power appeared to occur: > 300 ng/mL
[6]
  Effect on gamma band EEG power: dose-related reduction
